Reference: ChEMBL document CHEMBL3046930, “Germination and growth inhibitors from wheat (Triticum aestivum L.) husks” (2002)
Activity calls are given as the source filed them.

Legend:
Type in all cases: functional
Triticum aestivum [1] = experiment: Growth inhibition of intact Triticum aestivum (wheat) seed assessed as appearance of distinct rootlets at 500 ppm after 4 days relative to wheat grains RL4137 germination
Triticum aestivum [2] = experiment: Inhibition of intact Triticum aestivum (wheat) seed germination assessed as appearance of distinct rootlets at 500 ppm after 4 days relative to wheat grains RL4137 germination
Triticum aestivum [3] = experiment: Growth inhibition of intact Triticum aestivum (wheat) seed assessed as appearance of sprouts at 500 ppm after 4 days relative to wheat grains RL4137 germination
Triticum aestivum [4] = experiment: Inhibition of intact Triticum aestivum (wheat) seed germination assessed as appearance of sprouts at 500 ppm after 4 days relative to wheat grains RL4137 germination

C[C@H](O)c1ccccc1
active: growth inhibition (GI) (Triticum aestivum [1]) | inhibition (Triticum aestivum [2]) | growth inhibition (GI) (Triticum aestivum [3]) | inhibition (Triticum aestivum [4])

CC1(C)CCC[C@@]2(C)OC(=O)C=C12
active: growth inhibition (GI) (Triticum aestivum [1]) | inhibition (Triticum aestivum [2]) | growth inhibition (GI) (Triticum aestivum [3]) | inhibition (Triticum aestivum [4])

CC(O)c1ccccc1 (racemic)
active: growth inhibition (GI) (Triticum aestivum [1]) | inhibition (Triticum aestivum [2]) | growth inhibition (GI) (Triticum aestivum [3]) | inhibition (Triticum aestivum [4])

CC1(C)CCCC2(C)OC(=O)C=C12 (racemic)
active: growth inhibition (GI) (Triticum aestivum [1]) | inhibition (Triticum aestivum [2]) | growth inhibition (GI) (Triticum aestivum [3]) | inhibition (Triticum aestivum [4])

CC1(C)CCC[C@]2(C)OC(=O)C=C12
active: growth inhibition (GI) (Triticum aestivum [1]) | inhibition (Triticum aestivum [2]) | growth inhibition (GI) (Triticum aestivum [3]) | inhibition (Triticum aestivum [4])

C[C@@H](O)c1ccccc1
active: growth inhibition (GI) (Triticum aestivum [1]) | inhibition (Triticum aestivum [2]) | growth inhibition (GI) (Triticum aestivum [3]) | inhibition (Triticum aestivum [4])
